According to patent publication EP1566447A1, “Glimepiride- and insulin-induced glycosylphosphatidylinositol-specific phospholipase C regulation” (priority 2004, dated 2005):
pIC50: −log10 of the molar value.

How the values were obtained:
bacterial PC-PLC = target: T1, bacterial PC-PLC (Bacillus cereus, UniProt P09598); assay: selectivity: PC-PLC assay; format: biochemical; details: 50 µM
T1 construct: purchased Sigma/Aldrich (Deisenhofen, Germany)

[1] = target: phospholipase A2 (honey bee venom) (Apis mellifera, UniProt P00630); format: biochemical; details: 50 µM
phospholipase A2 (honey bee venom), sequence (P00630 34-167 limits assumed): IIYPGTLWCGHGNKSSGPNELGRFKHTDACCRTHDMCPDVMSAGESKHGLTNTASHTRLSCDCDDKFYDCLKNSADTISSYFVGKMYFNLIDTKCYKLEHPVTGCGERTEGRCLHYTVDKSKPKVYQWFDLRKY

[2] = system: GPI-PLC of hcDIGs from rat adipocytes; assay: adipocyte GPI-PLC assay (cleavage of AChE, TX-114 partitioning); format: biochemical
Description: Biophys. […] Each reaction mixture was subjected to TX-114 partitioning (see below).
After incubation for 1 h on ice, the mixture was layered onto a cushion of 0.4 ml of 0.25 M sucrose and 25 mM Tris/HCl (pH 7.4) on ice.
Cleavage rate was calculated from the amount of hydrophilic AChE and aP activity recovered with the TX-114-depleted phase upon TX-114 partitioning.

Isolated rat adipocytes = assay: localization of lipolytically cleaved and uncleaved GPI-proteins at hcDIGs, IcDIGs and total plasma membranes; format: cell-based; details: GPI-2350 50 µM, insulin 10 nM, glimepiride 20 µM
rat liver PI-PLC = assay: selectivity: mammalian PI-PLC assay; format: biochemical; details: 50 µM
Description: (§1) Hormone-sensitive lipase (HSL) and lipoprotein lipase (LPL) were measured using a radiolabeled triolein droplet emulsion as described in "Vertesy et al., (2002) Journal Antibiotics 55:480-494". Pancreatic lipase (PL) was determined by incubation of 0.25 mmol tributyrin in 2 ml of 5 mM Tris/HCl (pH 6.5), 6 mM sodium taurodeoxycholate, 150 mM NaCl, 1 mM CaCl2 with porcine PL and colipase in the same buffer using a recording pH stat (stirring at 1000 rpm at 25°C) with the pH adjusted to 6.5. PC-PLC was assayed by incubation of 0.2 ml of 10 mM dipalmitoyllecithin, 0.1 ml of 10 mM SDC and 0.1 ml of 0.03 M CaCl2 with bacterial PC-PLC (in 50 mM Tris/HCl, pH 7.5, 0.1 % BSA) for 10 min at 37°C. The reaction was terminated by addition of 0.1 ml of 50 % TCA and subsequently of 2.5 ml of […]. After centrifugation (1500xg, 15 min), 0.2-ml portions of the upper methanol/water phase (~ 1.33 ml) was removed, supplemented with 0.5 ml of 60 % HClO4, then heated at 170°C for 1 h and finally analyzed for inorganic phosphate. Mammalian PI-PLC was measured by incubation of 0.1 ml of 10 mM PI, 0.1 ml of 0.8 % sodium deoxycholate, 0.1 % BSA, 0.2 ml of 100 mM sodium borate (pH 7.5) and rat liver PI-PLC for 20 min at 37°C. The reaction was terminated and further processed as described for the PC-PLC. […] Radioactive phosphatidic acid was detected by phosphorimaging. […]

lipoprotein lipase (LPL) = target: T2, lipoprotein lipase (LPL) (Bos taurus, UniProt P11151); assay: selectivity: lipoprotein lipase assay; format: biochemical, bovine; details: 50 µM
T2 construct: purchased Sigma/Aldrich (Deisenhofen, Germany); host or cells: bovine milk
T2 sequence (P11151 29-478): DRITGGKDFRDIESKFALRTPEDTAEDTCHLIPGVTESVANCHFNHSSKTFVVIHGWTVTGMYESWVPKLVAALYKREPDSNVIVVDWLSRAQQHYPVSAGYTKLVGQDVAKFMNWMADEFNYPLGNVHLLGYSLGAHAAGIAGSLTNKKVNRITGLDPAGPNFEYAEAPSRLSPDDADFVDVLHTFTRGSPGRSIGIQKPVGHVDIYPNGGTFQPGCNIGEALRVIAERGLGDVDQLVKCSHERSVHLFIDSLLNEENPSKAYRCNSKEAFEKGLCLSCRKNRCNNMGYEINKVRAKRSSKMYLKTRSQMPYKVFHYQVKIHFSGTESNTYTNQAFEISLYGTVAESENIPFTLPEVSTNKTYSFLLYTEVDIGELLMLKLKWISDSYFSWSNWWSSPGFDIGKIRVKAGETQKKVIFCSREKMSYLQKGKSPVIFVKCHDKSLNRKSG
Description: as §1

[3] = relative to amphiphilic version in PM of basal adipocytes (100)
[4] = relative to amphiphilic version in hcDIGs of basal adipocytes (100)

T1 sequence (P09598 39-283 limits assumed): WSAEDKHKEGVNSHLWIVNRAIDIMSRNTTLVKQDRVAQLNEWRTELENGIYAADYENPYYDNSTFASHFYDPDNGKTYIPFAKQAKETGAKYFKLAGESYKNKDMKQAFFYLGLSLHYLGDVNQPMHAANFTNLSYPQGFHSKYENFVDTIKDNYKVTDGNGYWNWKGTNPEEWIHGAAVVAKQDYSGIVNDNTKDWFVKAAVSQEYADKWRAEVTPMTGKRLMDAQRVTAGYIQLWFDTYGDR

**Q.** Which results are given for `CCCCCCCCCCCCP1(=O)O[C@@H]2[C@H](O)[C@@H](O)[C@H](O)[C@@H](O)[C@@H]2O1` (mixture of isomers) [GPI-2350, myo-inositol-1,2-cyclo-dodecylphosphonic acid]?
**A.** effect on phospholipase activity (bacterial PC-PLC): not significantly affected; effect on phospholipase activity [1]: not significantly affected; inhibition % at 1 mM ([2]; 1 mM, hcDIGs from rat adipocytes): 95 ± 11%; pIC50 ([2]; hcDIGs from rat adipocytes, inhibitor 0.05 µM - 1 mM): 6.30 to 6.70; lipolytic cleavage toward AChE after pretreatment and washing ([2]; hcDIGs treated with 50 µM, reisolated, extensively washed, assayed without inhibitor, data not shown): only low lipolytic cleavage; 5'-Nuc hydroph. PM (Isolated rat adipocytes; [3]): 3±2 arb. units; Gce1 hydroph. PM (Isolated rat adipocytes; [3]): 6±3 arb. units; aP hydroph. PM (Isolated rat adipocytes; [3]): 4±3 arb. units; 5'-Nuc amphiph IcDIGs (Isolated rat adipocytes; [4]): 15±6 arb. units; 5'-Nuc amphiph hcDIGs (Isolated rat adipocytes; [4]): 112±19 arb. units; 5'-Nuc hydroph. IcDIGs (Isolated rat adipocytes; [4]): 3±1 arb. units; 5'-Nuc hydroph. hcDIGs (Isolated rat adipocytes; [4]): 7±3 arb. units; Gce1 amphiph IcDIGs (Isolated rat adipocytes; [4]): 28±6 arb. units; Gce1 amphiph hcDIGs (Isolated rat adipocytes; [4]): 109±10 arb. units; Gce1 hydroph. IcDIGs (Isolated rat adipocytes; [4]): 14±7 arb. units; Gce1 hydroph. hcDIGs (Isolated rat adipocytes; [4]): 21±7 arb. units; aP amphiph IcDIGs (Isolated rat adipocytes; [4]): 19±13 arb. units; aP amphiph hcDIGs (Isolated rat adipocytes; [4]): 117±11 arb. units; effect on phospholipase activity (rat liver PI-PLC): not significantly affected; effect on lipase activity (lipoprotein lipase (LPL)): not significantly affected
